Molecular target: T1, PARK7 (Homo sapiens, UniProt Q99497)
T1 sequence (Q99497 1-189): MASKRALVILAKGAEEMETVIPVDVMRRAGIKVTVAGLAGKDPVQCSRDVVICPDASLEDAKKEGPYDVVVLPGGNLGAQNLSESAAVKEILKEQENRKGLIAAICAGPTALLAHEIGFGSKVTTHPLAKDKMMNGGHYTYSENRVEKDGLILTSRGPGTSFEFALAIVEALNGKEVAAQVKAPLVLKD
Experiment: High-throughput screen of the crude compound library, PARK7 fluorescence polarization (FP) assay with FP reagent JYQ-107
Type: biochemical
Conditions: 1.25 µM, crude compound library; read-out: HTS FP assay %Inhibition (1.25 µM)
Source text: Therefore, taking JYQ-88 as a starting point, we conducted an optimization to further improve the molecule in terms of inhibitory potency, specificity, and cellular uptake. […] First, a small tailored library was designed and synthesized to investigate whether the introduction of larger, hydrophilic substituents on JYQ-88 would enhance the interaction with the PARK7 pocket. […] The second approach involved the generation of a compound library containing diverse substituents at the azidomethyl position. […] We next performed a high-throughput screen of this crude compound library using our in-house developed PARK7 fluorescence polarization (FP) assay.[15]

Row | inhibition at 1.25 µM [%] | SMILES
1 | 76.5 | Cc1nc(-c2cccnc2)sc1C(=O)N1CCc2nc(NC(=O)[C@@H]3CCN(C#N)C3)sc2C1 [compound 128]
2 | 76.2 | Cc1cc(C(=O)N2CCc3nc(NC(=O)[C@@H]4CCN(C#N)C4)sc3C2)c(C)n1-c1ccon1 [compound 130]
3 | 82.4 | N#CN1CC[C@@H](C(=O)Nc2nc3c(s2)CN(C(=O)c2ccc(OCn4cc(Cl)cn4)cc2)CC3)C1 [compound 147]
4 | 80.2 | N#CN1CC[C@@H](C(=O)Nc2nc3c(s2)CN(C(=O)Cc2cnn(-c4ccccc4)c2)CC3)C1 [compound 148]
5 | 81.1 | N#CN1CC[C@@H](C(=O)Nc2nc3c(s2)CN(C(=O)c2ccc(CNS(=O)(=O)c4ccc(F)c(F)c4F)cc2)CC3)C1 [compound 151]
6 | 77.3 | N#CN1CC[C@@H](C(=O)Nc2nc3c(s2)CN(C(=O)c2csc(-c4cnc[nH]4)n2)CC3)C1 [compound 154]
7 | 80.2 | N#CN1CC[C@@H](C(=O)Nc2nc3c(s2)CN(C(=O)c2ccc(Cn4cncn4)cc2)CC3)C1 [compound 159]
8 | 82.9 | N#CN1CC[C@@H](C(=O)Nc2nc3c(s2)CN(C(=O)Cc2ccn(-c4ccccc4)n2)CC3)C1 [compound 162]
9 | 87.3 | N#CN1CC[C@@H](C(=O)Nc2nc3c(s2)CN(C(=O)c2ccc(-c4ccccc4)o2)CC3)C1 [compound 166]
10 | 80.3 | N#CN1CC[C@@H](C(=O)Nc2nc3c(s2)CN(C(=O)C2=NNC(=O)C2c2ccccc2)CC3)C1 (some centres unmarked) [compound 168]
11 | 77.5 | N#CN1CC[C@@H](C(=O)Nc2nc3c(s2)CN(C(=O)c2ccc(-c4cnco4)cc2)CC3)C1 [compound 171]
12 | 86.7 | Cn1nc(C(=O)N2CCc3nc(NC(=O)[C@@H]4CCN(C#N)C4)sc3C2)cc1-c1cccnc1 [compound 172]
13 | 72.5 | Cc1cc(COc2ccc(C(=O)N3CCc4nc(NC(=O)[C@@H]5CCN(C#N)C5)sc4C3)cc2Br)no1 [compound 173]
14 | 68.5 | Cc1onc(-c2ccccn2)c1C(=O)N1CCc2nc(NC(=O)[C@@H]3CCN(C#N)C3)sc2C1 [compound 176]
15 | 45.6 | N#CN1CC[C@@H](C(=O)Nc2nc3c(s2)CN(C(=O)C(F)(F)n2cc(-c4ccccc4)nn2)CC3)C1 [compound 178]
16 | 81 | N#CN1CC[C@@H](C(=O)Nc2nc3c(s2)CN(C(=O)C2Cc4ccccc42)CC3)C1 (some centres unmarked) [compound 179]
17 | 81.9 | N#CN1CC[C@@H](C(=O)Nc2nc3c(s2)CN(C(=O)c2cncc(N4CCCC4)n2)CC3)C1 [compound 182]
18 | 65.5 | CN(Cc1ccccc1)S(=O)(=O)c1ccc(C(=O)N2CCc3nc(NC(=O)[C@@H]4CCN(C#N)C4)sc3C2)cc1 [compound 183]
19 | 86.9 | Cn1nc(-c2cccnc2)cc1C(=O)N1CCc2nc(NC(=O)[C@@H]3CCN(C#N)C3)sc2C1 [compound 184]
20 | 77.5 | N#CN1CC[C@@H](C(=O)Nc2nc3c(s2)CN(C(=O)c2cnoc2-c2ccccc2C(F)(F)F)CC3)C1 [compound 185]
21 | 59.2 | Cn1cc(-c2cc[nH]n2)c(C(=O)N2CCc3nc(NC(=O)[C@@H]4CCN(C#N)C4)sc3C2)n1 [compound 187]
22 | 84.8 | Cc1nc(COc2ccc(C(=O)N3CCc4nc(NC(=O)[C@@H]5CCN(C#N)C5)sc4C3)cc2)no1 [compound 192]
23 | 72.4 | N#CN1CC[C@@H](C(=O)Nc2nc3c(s2)CN(C(=O)c2ccc(-c4cccs4)[nH]c2=O)CC3)C1 [compound 200]
24 | 70.1 | N#CN1CC[C@@H](C(=O)Nc2nc3c(s2)CN(C(=O)c2ccc(-n4cccn4)cc2)CC3)C1 [compound 203]

The remaining lines, values behind:

Row | SMILES | inhibition at 1.25 µM [%]
25 | CN1CCN(C(=O)c2ccccc2C(=O)N2CCc3nc(NC(=O)[C@@H]4CCN(C#N)C4)sc3C2)CC1 [compound 129] | 71.3
26 | N#CN1CC[C@@H](C(=O)Nc2nc3c(s2)CN(C(=O)c2ccnn2C2CCOCC2)CC3)C1 [compound 132] | 73.2
27 | Cn1nc(C(=O)N2CCOCC2)cc1C(=O)N1CCc2nc(NC(=O)[C@@H]3CCN(C#N)C3)sc2C1 [compound 134] | 87.6
28 | Cc1nn(C2CCOCC2)c(C)c1C(=O)N1CCc2nc(NC(=O)[C@@H]3CCN(C#N)C3)sc2C1 [compound 135] | 63
29 | N#CN1CC[C@@H](C(=O)Nc2nc3c(s2)CN(C(=O)C2CCOC4(CCC4)C2)CC3)C1 (some centres unmarked) [compound 136] | 80.8
30 | N#CN1CC[C@@H](C(=O)Nc2nc3c(s2)CN(C(=O)c2cnn(CCN4CCCC4)c2)CC3)C1 [compound 137] | 70.1
31 | N#CN1CC[C@@H](C(=O)Nc2nc3c(s2)CN(C(=O)C2(c4cccs4)CC2)CC3)C1 [compound 138] | 81.9
32 | N#CN1CC[C@@H](C(=O)Nc2nc3c(s2)CN(C(=O)C(c2ccccc2)n2cnnn2)CC3)C1 (some centres unmarked) [compound 141] | 59.5
33 | Cc1csc(N2CCCC(C(=O)N3CCc4nc(NC(=O)[C@@H]5CCN(C#N)C5)sc4C3)C2)n1 (some centres unmarked) [compound 142] | 85.9
34 | CC(C(=O)N1CCc2nc(NC(=O)[C@@H]3CCN(C#N)C3)sc2C1)n1nc(C(F)(F)F)cc1C1CC1 (some centres unmarked) [compound 143] | 64.1
35 | N#CN1CC[C@@H](C(=O)Nc2nc3c(s2)CN(C(=O)C2CCCN2C(=O)Cc2ccccc2)CC3)C1 (some centres unmarked) [compound 144] | 78.4
36 | N#CN1CC[C@@H](C(=O)Nc2nc3c(s2)CN(C(=O)CC2(n4cccc4)CCCCC2)CC3)C1 [compound 145] | 83.7
37 | CCS(=O)(=O)N1CCC(C(=O)N2CCc3nc(NC(=O)[C@@H]4CCN(C#N)C4)sc3C2)(c2ccccc2)CC1 [compound 150] | 62.5
38 | CC1CCCC(N2CC(C(=O)N3CCc4nc(NC(=O)[C@@H]5CCN(C#N)C5)sc4C3)CC2=O)C1C (some centres unmarked) [compound 153] | 64.4
39 | Cc1cc(C(=O)N2CCc3nc(NC(=O)[C@@H]4CCN(C#N)C4)sc3C2)c(C)n1C1CC1 [compound 155] | 47.7
40 | CN(CC(=O)N1CCCC(C(=O)N2CCc3nc(NC(=O)[C@@H]4CCN(C#N)C4)sc3C2)C1)c1ccc(Cl)cn1 (some centres unmarked) [compound 157] | 83.5
41 | N#CN1CC[C@@H](C(=O)Nc2nc3c(s2)CN(C(=O)C2CCN(C(=O)c4ccccn4)CC2)CC3)C1 [compound 158] | 69.2
42 | N#CN1CC[C@@H](C(=O)Nc2nc3c(s2)CN(C(=O)c2cc(Cl)nc(N4CCCC4)c2)CC3)C1 [compound 160] | 74.9
43 | Cc1nc(-c2c[nH]c(C(=O)N3CCc4nc(NC(=O)[C@@H]5CCN(C#N)C5)sc4C3)c2)cs1 [compound 161] | 86.4

Row | SMILES | inhibition at 1.25 µM [%]
44 | N#CN1CC[C@@H](C(=O)Nc2nc3c(s2)CN(C(=O)c2cccnc2N2CCCCC2)CC3)C1 [compound 167] | 69.5
45 | Cc1nn(-c2ccc(C(F)(F)F)cn2)c(C)c1CC(=O)N1CCc2nc(NC(=O)[C@@H]3CCN(C#N)C3)sc2C1 [compound 169] | 77.8
46 | Cc1ccc(N2CCCC(C(=O)N3CCc4nc(NC(=O)[C@@H]5CCN(C#N)C5)sc4C3)C2)nc1 (some centres unmarked) [compound 170] | 62.7
47 | COc1ccc(C(=O)N2CCc3nc(NC(=O)[C@@H]4CCN(C#N)C4)sc3C2)cc1S(=O)(=O)NCCc1ccccn1 [compound 175] | 78.6
48 | N#CN1CC[C@@H](C(=O)Nc2nc3c(s2)CN(C(=O)C(=O)N2CCN(c4ccccc4)CC2)CC3)C1 [compound 177] | 78.6
49 | N#CN1CC[C@@H](C(=O)Nc2nc3c(s2)CN(C(=O)c2ccnc(N4CCOCC4)n2)CC3)C1 [compound 180] | 87.3
50 | N#CN1CC[C@@H](C(=O)Nc2nc3c(s2)CN(C(=O)C2COCCN2C(=O)OCc2ccccc2)CC3)C1 (some centres unmarked) [compound 181] | 72.7
51 | N#CN1CC[C@@H](C(=O)Nc2nc3c(s2)CN(C(=O)c2cn(CC4CCCO4)nn2)CC3)C1 (some centres unmarked) [compound 186] | 83.8
52 | CN1CCN(C(=O)[C@@H]2[C@@H](C(=O)N3CCc4nc(NC(=O)[C@@H]5CCN(C#N)C5)sc4C3)C2(C)C)CC1 [compound 189] | 66.8
53 | Cc1csc(N2CCC(C(=O)N3CCc4nc(NC(=O)[C@@H]5CCN(C#N)C5)sc4C3)CC2)n1 [compound 190] | 51.8
54 | N#CN1CC[C@@H](C(=O)Nc2nc3c(s2)CN(C(=O)c2cc(Cn4cc(Cl)cn4)cs2)CC3)C1 [compound 191] | 86.7
55 | CN(Cc1ccnn1C)C(=O)C1CCCCC1C(=O)N1CCc2nc(NC(=O)[C@@H]3CCN(C#N)C3)sc2C1 (some centres unmarked) [compound 193] | 73
56 | COc1ccc(C(=O)N2CCc3nc(NC(=O)[C@@H]4CCN(C#N)C4)sc3C2)cc1S(=O)(=O)NCc1ccccn1 [compound 194] | 80.2
57 | N#CN1CC[C@@H](C(=O)Nc2nc3c(s2)CN(C(=O)c2ccc(CN4CCCCCC4)s2)CC3)C1 [compound 195] | 72.4
58 | Cc1nc(-c2cc(C)n(CCC(=O)N3CCc4nc(NC(=O)[C@@H]5CCN(C#N)C5)sc4C3)c2C)cs1 [compound 196] | 61.7
59 | Cc1noc(C)c1S(=O)(=O)N1CCC(C(=O)N2CCc3nc(NC(=O)[C@@H]4CCN(C#N)C4)sc3C2)CC1 [compound 198] | 65.2
60 | N#CN1CC[C@@H](C(=O)Nc2nc3c(s2)CN(C(=O)c2cc(N4CCOCC4)ccn2)CC3)C1 [compound 201] | 72.2
61 | N#CN1CC[C@@H](C(=O)Nc2nc3c(s2)CN(C(=O)Cc2csc(-c4nnc[nH]4)n2)CC3)C1 [compound 202] | 81
62 | Cc1ccccc1COc1cccc(CC(=O)N2CCc3nc(NC(=O)[C@@H]4CCN(C#N)C4)sc3C2)c1 [compound 204] | 73.6

From article PMC11129182, “Development of Inhibitors, Probes, and PROTAC Provides a Complete Toolbox to Study PARK7 in the Living Cell” (Journal of Medicinal Chemistry, 2024)
